Assay results reported in patent US11123378B2, “Compositions comprising bacterial strains” (4D Pharma Research Limited, priority 2017, dated 2021).

Test system: cerebral tissues in the cerebral ischemia-reperfusion I/R model in mice
Assay: Histological evaluation (H&E) of cerebral tissues in the cerebral ischemia-reperfusion I/R model
Type: in vivo
Conditions: right hemisphere hippocampus; termination day 15 or day 29; compared to PBS negative control (2M)
Text: At termination of the experiment, at either day 15 or day 29, the mice cerebral tissues were subjected to histopathological examinations.
The tissues were studied for pyknotic score (which assesses the extent of cell necrosis and death) and for vacuolisation (which assesses the extent of degeneration similar to apoptosis).
At termination the animals were sacrificed by CO2 asphyxiation. Where possible, half of the animals were sacrificed on day 15, and the other half were sacrificed on day 29. […] Brains were also harvested following saline perfusion. The right hemisphere of each brain was fixed with 2.5% Paraformaldehyde and stored at 2-8° C.
The sections of the right hemisphere of all animals per group were loaded onto slides followed by histological examination. Tissues were trimmed, embedded in paraffin, sectioned at approximately 5 microns thickness and stained with Hematoxylin & Eosin (H&E) (as well as with TUNEL reagents) using standardized protocols. The slides were examined under a light microscope. […]
The numbers of karyopy-knosis and apoptotic cells were counted, and the mean values were calculated. […] Ten field of ×20 magnifications were evaluated for the pyknosis and vacuolization score as follows.
Pyknosis and vacuolization, semi-quantitative scores: • 1. […]
A score was determined for each field of ×20 magnification for each mouse in a given sample group.

C[C@]12N[C@H](Cc3ccccc31)c1ccccc12 [MK-801]
semi-quantitative pyknosis score (H&E): reduced pyknosis score | semi-quantitative vacuolisation score (H&E): did not reduce the vacuolisation score
